ChEMBL document CHEMBL5053535, “Design, synthesis and biological evaluation of novel aminopyrazole- and 7-azaindole-based Nek1 inhibitors and their effects on zebrafish kidney development” (Bioorg Med Chem Lett, 2021)

Target: T1, Serine/threonine-protein kinase Nek1 (Homo sapiens) (UniProt Q96PY6)
T1 sequence (whole entry): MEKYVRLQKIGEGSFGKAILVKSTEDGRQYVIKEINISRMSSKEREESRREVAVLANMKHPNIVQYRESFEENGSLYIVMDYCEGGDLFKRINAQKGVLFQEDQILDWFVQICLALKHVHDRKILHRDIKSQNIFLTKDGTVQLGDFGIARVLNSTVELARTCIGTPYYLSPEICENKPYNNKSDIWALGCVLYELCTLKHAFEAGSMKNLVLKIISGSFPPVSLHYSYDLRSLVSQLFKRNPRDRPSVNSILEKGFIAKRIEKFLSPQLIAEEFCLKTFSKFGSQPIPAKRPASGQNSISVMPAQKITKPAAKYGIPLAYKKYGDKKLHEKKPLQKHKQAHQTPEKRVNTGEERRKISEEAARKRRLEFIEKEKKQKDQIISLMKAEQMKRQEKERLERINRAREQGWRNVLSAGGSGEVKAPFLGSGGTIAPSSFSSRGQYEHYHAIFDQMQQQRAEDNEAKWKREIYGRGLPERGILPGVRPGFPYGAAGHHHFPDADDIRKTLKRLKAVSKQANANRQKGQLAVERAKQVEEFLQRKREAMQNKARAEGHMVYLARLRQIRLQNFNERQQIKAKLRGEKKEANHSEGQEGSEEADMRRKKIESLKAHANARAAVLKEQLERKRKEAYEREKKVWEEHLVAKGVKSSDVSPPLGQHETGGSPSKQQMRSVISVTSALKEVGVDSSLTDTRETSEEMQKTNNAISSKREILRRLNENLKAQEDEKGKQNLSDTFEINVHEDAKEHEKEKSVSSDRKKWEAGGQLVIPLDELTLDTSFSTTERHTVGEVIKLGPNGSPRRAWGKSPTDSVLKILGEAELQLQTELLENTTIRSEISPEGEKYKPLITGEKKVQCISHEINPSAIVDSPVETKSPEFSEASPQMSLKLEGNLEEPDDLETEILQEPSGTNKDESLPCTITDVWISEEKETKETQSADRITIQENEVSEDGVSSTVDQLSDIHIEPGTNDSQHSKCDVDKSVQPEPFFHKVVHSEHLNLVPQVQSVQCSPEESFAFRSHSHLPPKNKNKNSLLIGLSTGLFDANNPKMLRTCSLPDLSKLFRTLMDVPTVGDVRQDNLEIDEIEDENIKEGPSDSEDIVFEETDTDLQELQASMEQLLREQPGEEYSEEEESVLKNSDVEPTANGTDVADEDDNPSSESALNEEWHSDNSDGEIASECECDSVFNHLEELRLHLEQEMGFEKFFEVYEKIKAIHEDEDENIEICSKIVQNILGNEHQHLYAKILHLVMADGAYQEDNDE
Assay: Inhibition of human NEK1 using myelin basic protein as substrate assessed as residual activity at 1 uM in presence of [gamma-33P]-ATP by radiometric hotspot kinase assay relative to control

Activity [%]	Structure (SMILES)
86.9	CCCCNc1nccc(Nc2cc(C)[nH]n2)n1
47.9	COC(=O)c1cccc(-c2cnc3[nH]cc(-c4ccc(C)cc4)c3c2)c1
90.1	Cc1cc(Nc2ccnc(Nc3cccc4ccccc34)n2)n[nH]1
74.8	Cc1cc(Nc2ccnc(Nc3ccccc3)n2)n[nH]1
52.3	N#Cc1cccc(-c2cnc3[nH]cc(-c4ccccc4)c3c2)c1
28.5	COC(=O)c1cccc(-c2cnc3[nH]cc(-c4cccc([N+](=O)[O-])c4)c3c2)c1
91.8	Cc1cc(Nc2ccnc(N(C)Cc3ccccc3)n2)n[nH]1
60.9	COC(=O)c1cccc(-c2cnc3[nH]cc(-c4ccccc4OC)c3c2)c1
98.4	Cc1cc(Nc2ccnc(N3CCN(C)CC3)n2)n[nH]1
46.4	COC(=O)c1cccc(-c2cnc3[nH]cc(-c4cccc(C)c4)c3c2)c1
36.6	Cc1cc(Nc2ccnc(Nc3cccc([N+](=O)[O-])c3)n2)n[nH]1
74.3	N#Cc1cccc(-c2cnc3[nH]cc(-c4ccncc4)c3c2)c1
101	Cc1cc(Nc2ccnc(NCc3cccnc3)n2)n[nH]1
61	COC(=O)c1cccc(-c2cnc3[nH]cc(-c4ccccc4C)c3c2)c1
95.4	Cc1cc(Nc2ccnc(NCc3ccccc3)n2)n[nH]1
97.2	Cc1cc(Nc2ccnc(NCc3ccc4c(c3)OCO4)n2)n[nH]1
28.5	O=[N+]([O-])c1cccc(Nc2nccc(Nc3cc(C4CC4)[nH]n3)n2)c1
86.8	Cc1ccc(CNc2nccc(Nc3cc(C)[nH]n3)n2)cc1
95.1	Cc1cc(Nc2ccnc(NC3CC3)n2)n[nH]1
89.8	Cc1cc(Nc2ccnc(N(C)c3ccccc3)n2)n[nH]1
65.9	c1ccc(Nc2nccc(Nc3cc(-c4ccccc4)[nH]n3)n2)cc1
90.8	Cc1cc(Nc2ccnc(NCc3ccccn3)n2)n[nH]1
99.8	COCCNc1nccc(Nc2cc(C)[nH]n2)n1
72.8	Cc1ccc(-c2c[nH]c3ncc(-c4cccc(C#N)c4)cc23)cc1
29.3	c1ccc(-c2cnc3[nH]cc(-c4ccccc4)c3c2)cc1
> 100	N#Cc1cccc(-c2cnc3[nH]cc(Br)c3c2)c1
41.1	COc1cccc(-c2c[nH]c3ncc(-c4cccc(C#N)c4)cc23)c1
> 100	N#Cc1cccc(-c2cnc3[nH]cc([N+](=O)[O-])c3c2)c1
> 100	N#Cc1cccc(-c2cnc3[nH]cc(Cl)c3c2)c1
87.5	Cc1cc(Nc2ccnc(Nc3ccccc3C)n2)n[nH]1

Target: T2, Serine/threonine-protein kinase Nek1 (Homo sapiens, UniProt Q96PY6)
T2 sequence (Q96PY6 whole entry): T1 sequence (whole entry)
Assay: Inhibition of human NEK1 using myelin basic protein as substrate assessed as residual activity in presence of [gamma-33P]-ATP by radiometric hotspot kinase assay relative to control

IC50 [µM]	Structure (SMILES)
0.85	c1ccc(Nc2nccc(Nc3cc(C4CC4)[nH]n3)n2)cc1

Target: T1, Serine/threonine-protein kinase Nek1 (Homo sapiens)
Assay: Inhibition of human NEK1 using myelin basic protein as substrate assessed as residual activity at 10 uM in presence of [gamma-33P]-ATP by radiometric hotspot kinase assay relative to control

Activity [%]	Structure (SMILES)
62.9	c1ccc(-c2cnc3[nH]ccc3c2)cc1
72.8	O=C(O)c1cccc(-c2cnc3[nH]ccc3c2)c1
44.7	COC(=O)c1cccc(-c2cnc3[nH]ccc3c2)c1
67.2	CNC(=O)c1cccc(-c2cnc3[nH]ccc3c2)c1
78.5	O=[N+]([O-])c1cccc(-c2cnc3[nH]ccc3c2)c1
64.7	N#Cc1cccc(-c2cnc3[nH]ccc3c2)c1
